These results are taken from article PMC12362433, “Systematic Determination of the Impact of Structural Edits on Peptide Accumulation into Mycobacteria” (ACS Chemical Biology, 2025).

Bridge positions count the residues as written; N and C are the ends. Square brackets hold non-standard residues; d marks the D form. Peptide text beside a SMILES is read from it. * marks the point of attachment. Lys(N3) = [N-]=[N+]=NCCCC[C@H](N)C(=O)O; Azidoacetyl = [N-]=[N+]=NCC(=O)*; NMeF = CN[C@@H](Cc1ccccc1)C(=O)O; NMeT = CN[C@H](C(=O)O)[C@@H](C)O; NMeL = CN[C@@H](CC(C)C)C(=O)O; dNMeL = CN[C@H](CC(C)C)C(=O)O; NMeK = CN[C@@H](CCCCN)C(=O)O; NMeV = CN[C@H](C(=O)O)C(C)C A value given as a limit tells only on which side of the number the result lay.

The subject of series [1] is Msm. It is filed as cell-based, Mycobacterium smegmatis. The following applies: against Msm; for MIC value: 48 h, three biological replicates. As to the method: Minimum inhibitory concentration (MIC) assay. Msm cells were inoculated from the glycerol stock to the according media and grown for 24 hours until 0.5- 0.6 OD. Testing peptides were dissolved in the 7H9 growth media mentioned above and made into serial dilutions from 128 µM. 200 µL of each concentration was added to a deep well 96-well plate – with each concentration added in triplicates. The cells were diluted […] to OD of around 0.05 with fresh 7H9 growth media. […] of diluted cells were added to the deep well plate each well and mixed well with the peptide solution. The plate was covered by an adhesive porous film and incubated at 37 °C with shaking at 250 rpm for 48 h. The contents from each well were then transferred to a flat-bottom 96-well plate for MIC value determination. MIC values were determined both visually and readings of OD (wells OD < 0.1) from a Biotek Synergy H1 microplate reader at 600 nm.

A short description of series [2]: Serum stability assay in mouse serum. The class given is in vitro ADME. Here is the method:
Serum stability assay. Time course degradation in mouse serum was evaluated for peptides Lin0, Cyc0, Nmet0 and Nmet9. Compounds were incubated in mouse serum at a concentration of 1.0 mM to a total of 200 μL at 37 °C. At each time point (0, 15, 30, 60 min), 4 0 μL of the solution was aliquoted and diluted in a 1:1 solution o f H2O/CH3CN (101 μL) containing trichloroacetic acid (9 μL) and 100 μM of internal standard Fm o c -L-phenylalanine. This mixture was incubated in ice for 5 min to precipitate serum proteins.
The samples were then centrifuged at 21,000×g for 5 min. 140 μL of the supernatant was then transferred to a filter tube and centrifuged again at 21,000× g for 5 min to filter. 110 μL of the filtrate was then analyzed using Phenomenex Luna 5 µm C8(2) on RP-HPLC; gradient elution in H2O/CH 3CN with 0.1% TFA at 1 mL/min. Peptide identity was confirmed via peak collection and subsequent matrix-assisted laser desorption ionization time-of-flight (MALDI-TOF) mass spectroscopy (Shimadzu 8020). To eliminate variations in the overall signal intensity, area under the curve (AUC) for the peptides of interest at each time point was normalized to the AUC of the internal standard Fm o c -L-phenylalanine, the concentration of which was predetermined. These normalized AUC values were then further normalized to the “0 min” time point which was set to 100%. […]

Series [3] has as its system Msm cells. The following applies: 25 μM TetD labeling; microscopy and EtBr accumulation/efflux.
Experimental: Ethidium bromide (EtBr) whole-cell accumulation assay. To a 96-well plate, 90 µL of
T etD -modified Msm cells were added in triplicate. Next, 5 µL of 1 mM peptide stock
solutions were added to yield a final concentration of 50 µM. The volume in each well was
made up to 100 µL using PBS. To the blank and PBS control wells, 10 µL of PBS was
added at this point. For the blank wells, 90 µL of unlabeled cells were added in triplicate.
The plates were then incubated at 37 °C for the same duration as the corresponding PAC -
MAN assay incubation duration for that library. The cells were centrifuged for 2 min at
3000× g, and the supernatant was discarded. The pellets were then washed with 100 µL
PBST twice and finally resuspended in 100 µL of PBST. 95 µL of these cells were then
transferred to corresponding wells in a 96 -well, black, flat-bottomed plate. To each well,
5 µL of 100 µM EtBr (5 µM final) was added. The fluorescent intensities were measured
by a Biotek Synergy H1 microplate reader 60 m post -treatment with EtBr, with continuous
orbital shaking. Wavelengths: ethidium bromide, excitation 530 nm/emission 590 nm.

Consider `CC(C)C[C@@H]1NC(=O)[C@@H]2CCCN2C(=O)[C@H](CC(C)C)NC(=O)[C@@H](NC(=O)[C@@H]2CCCN2C(=O)[C@@H](NC(=O)CN=[N+]=[N-])C(C)C)[C@@H](C)OC(=O)CNC(=O)[C@@H](CC(C)C)NC(=O)[C@@H]2CCCN2C(=O)[C@H](C(C)C)NC1=O` [grisCyc] (Azidoacetyl-VPTLPLVP[dL]G; ester 3-C), for which the MIC value in series [1] is more than 64 µM.

For `CC(C)C[C@H](NC(=O)[C@@H]1CCCN1C(=O)[C@H](CC(C)C)NC(=O)[C@@H](NC(=O)[C@@H]1CCCN1C(=O)[C@@H](NC(=O)CN=[N+]=[N-])C(C)C)[C@@H](C)O)C(=O)N[C@H](C(=O)N1CCC[C@H]1C(=O)N[C@H](CC(C)C)C(=O)NCC(N)=O)C(C)C` [grisLin] (Azidoacetyl-VPTLPLVP[dL]G-NH2), in series [1], the MIC value is more than 64 µM. For `CC(C)C[C@@H]1NC(=O)[C@@H]2CCCN2C(=O)[C@H](CC(C)C)NC(=O)[C@@H](N(C)C(=O)[C@@H]2CCCN2C(=O)[C@H](C(C)C)N(C)C(=O)CN=[N+]=[N-])[C@@H](C)OC(=O)CNC(=O)[C@@H](CC(C)C)N(C)C(=O)[C@@H]2CCCN2C(=O)[C@H](C(C)C)N(C)C1=O` [grisMeCyc] (Azidoacetyl-[NMeV]P[NMeT]LPL[NMeV]P[dNMeL]G; ester 3-C), in series [1], the MIC value was 2 µM. Take `CC(=O)N[C@@H](CCCCN=[N+]=[N-])C(=O)N[C@@H](CC(C)C)C(=O)N[C@@H](CO)C(=O)N[C@@H](CCCCN)C(=O)N[C@@H](CO)C(=O)N[C@@H](Cc1ccccc1)C(N)=O` [Lin0] (Ac-[Lys(N3)]LSKSF-NH2): the “time to full degradation in serum” value in series [2] was not above 1 h. As to `C[C@H](NC(=O)CCC(=O)N1Cc2ccccc2C#Cc2ccccc21)C(=O)N[C@H](CCC(=O)N[C@@H](CCCCN)C(=O)N[C@H](C)C(=O)O)C(N)=O` [TetD], in series [3], the “cell morphology and cell envelope integrity after labeling” value was “no significant changes in cell morphology or cell envelope integrity”. As to `CC(C)C[C@H](NC(=O)[C@@H]1CCCN1C(=O)[C@H](CC(C)C)NC(=O)[C@H]([C@@H](C)O)N(C)C(=O)[C@@H]1CCCN1C(=O)[C@H](C(C)C)N(C)C(=O)CN=[N+]=[N-])C(=O)N(C)[C@H](C(=O)N1CCC[C@H]1C(=O)N(C)[C@H](CC(C)C)C(=O)NCC(N)=O)C(C)C` [grisMeLin] (Azidoacetyl-[NMeV]P[NMeT]LPL[NMeV]P[dNMeL]G-NH2), the MIC value in series [1] was more than 64 µM. Besides, the “fold increase in MIC value relative to grisMeCyc” value in series [1] (loss of macrocyclization) is given as more than 32 fold. As to `CC(C)C[C@@H](C(=O)N(C)[C@@H](CCCCN)C(=O)N(C)[C@@H](CC(C)C)C(=O)N(C)[C@@H](Cc1ccccc1)C(N)=O)N(C)C(=O)[C@H](CCCCN)N(C)C(=O)CN=[N+]=[N-]` [Nmet5] (Azidoacetyl-[NMeK][NMeL][NMeK][NMeL][NMeF]-NH2), the “serum stability (in words)” value in series [2] (mouse serum, 37 °C, over 1 h) is given as “considerably greater serum stability than peptide Nmet0”.
